In data set [1] the target is T1, human PTHR1 (R^0 conformation) (Homo sapiens, UniProt Q03431).
T1 construct: expressed in transfected cells; host or cells: COS-7 cells (transient transfection; membranes)
T1 sequence (Q03431 27-593): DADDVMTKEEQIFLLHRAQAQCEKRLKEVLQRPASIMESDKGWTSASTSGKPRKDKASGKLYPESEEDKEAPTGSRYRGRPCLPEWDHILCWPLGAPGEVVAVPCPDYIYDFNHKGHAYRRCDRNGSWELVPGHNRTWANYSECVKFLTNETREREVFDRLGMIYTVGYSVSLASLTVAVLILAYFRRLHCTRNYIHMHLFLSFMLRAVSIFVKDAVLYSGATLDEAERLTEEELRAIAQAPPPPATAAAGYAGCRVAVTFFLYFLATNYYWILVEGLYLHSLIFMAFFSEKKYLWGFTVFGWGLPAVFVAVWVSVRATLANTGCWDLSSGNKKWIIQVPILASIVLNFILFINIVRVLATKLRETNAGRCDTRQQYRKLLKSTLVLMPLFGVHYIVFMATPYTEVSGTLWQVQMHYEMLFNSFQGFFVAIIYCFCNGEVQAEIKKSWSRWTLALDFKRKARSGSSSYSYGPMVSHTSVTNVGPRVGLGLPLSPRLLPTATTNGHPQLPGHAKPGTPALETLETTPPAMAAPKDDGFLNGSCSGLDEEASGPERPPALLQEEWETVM
In words: Competition binding to the R^0 conformation of PTHR1.

In data set [2] the target is T2, human PTHR1 (RG conformation) (Homo sapiens, UniProt Q03431).
T2 construct: expressed in transfected cells; host or cells: COS-7 cells (transient co-transfection; membranes)
T2 sequence (Q03431 27-593): T1 sequence (Q03431 27-593)
In words: Competition binding to the RG conformation of PTHR1.

A further data set has as its target T3, human PTHR1 (Homo sapiens, UniProt Q03431).
T3 construct: expressed in transfected cells
T3 sequence (Q03431 27-593): T1 sequence (Q03431 27-593)
In words: GloSensor cAMP signaling assay in GP‐2.3 cells. Type of data set: cell-based. The procedure:
GP‐2.3 cells, an HEK‐293 cell‐ (ATCC CRL‐1573) derived cell line that stably expresses the luciferase‐based pGloSensor‐22F (GloSensor) cAMP reporter plasmid (Promega Corp., […], USA) along with the human PTHR1, were cultured in DMEM (Thermo Fisher Scientific, Waltham, MA, USA) supplemented with FBS (10%). Cells were seeded into white 96‐well plates for GloSensor cAMP assays, and used for assay 2 to 3 days after the monolayer became confluent.16 UGS‐56 cells were derived from the UMR106 rat osteoblastic cell line by stably transfecting the cells to express the GloSensor‐cAMP reporter. B64 cells are a derivative of the porcine kidney cell line, LLC‐PK1 that stably expresses the human PTHR1. COS‐7 cells (ATCC CRL‐1661) were seeded into 10‐cm dishes and transiently transfected to express the human PTHR1 with or without a high‐affinity, negative‐dominant Gαs subunit; 2 days after transfection, the cells were harvested for membrane preparations.13 All transfections were performed using the Fugene HD reagent (Promega Corp.).
Changes in cAMP levels were assessed in intact GP‐2.3 or UGS‐56 cells via the (GloSensor) cAMP reporter. The intact cells in white 96‐well plates were preloaded with luciferin in CO2‐independent culture media (Thermo Fisher) for 20 min at room temperature, then treated with a test ligand diluted in the same media and placed into a Envision plate reader (PerkinElmer, Waltham, MA, USA) for an additional 30 min, during which time cAMP‐dependent luminescence was measured at 2‐min intervals (ligand‐on phase). […] For washout responses, the cells were treated as above, and after the ligand‐on phase, the plate was removed from the plate reader, the cells were rinsed with media, then fresh media containing only luciferin was added and luminescence was measured for an additional 90 min (washout phase). EC50 values were determined using the 4‐parameter sigmoidal dose–response equation in Prism 8.0 (GraphPad Software, Inc., La Jolla, CA, USA).
The cells were then removed from the plate reader, rinsed twice with media to remove unbound ligand, and then fresh media containing luciferin but lacking ligand was added and luminescence was assessed for additional 90 min (Ligand wash‐out phase). Data are means (± SEM) of four experiments, each performed in triplicate. Figure S2. […] Panels A‐C represent three separate experiments. […] Figure S3. […] Serum and urine samples obtained from the TPTX and sham control rats of the two‐week daily‐administration experiment shown in Figure 4 were analyzed by ELISA for the indicated markers. A) serum 1,25(OH)2Vitamin‐D3. B) urinary deoxypyridinoline (DpD)/Cre. C) serum FGF23. […] Serum and urine samples obtained from the TPTX and sham control rats of the two‐week daily‐administration experiment shown in Figure 4 were analyzed for total inorganic phosphorus (Pi). […] Figure S5. […] B) The same peptides were assessed at a concentration of 3 nM for the capacity to stimulate cAMP formation in HKRK‐B64 cells (LLC‐PK1 cells stably expressing the hPTHR1, cAMP measured by RIA). […] Data in A and B are means (±SEM) of three experiments, each performed in triplicate or quadruplicate. […] D) The same analogs as in C were assessed at a 3.0 nM concentration for the capacity to stimulate cAMP formation in HKRK‐B64 cells. Data are means (±SEM) of three experiments, each performed in duplicate. […] Data are means (±SEM) of duplicate determinations of a single experiment representative of three others. Click here for additional data file.

The test system of data set [3] is thyroparathyroidectomized (TPTX) rats. As to the kind of experiment: Repeated daily administration in TPTX rats (11‐day treatment, 12‐day study). The format is in vivo, rat. Here is the method: TPTX rats were injected i.v. or s.c. with vehicle or vehicle containing a PTH peptide, or orally treated once daily with vehicle (medium‐chain triglyceride; Chugai Pharma Manufacturing, Tokyo, Japan) or vehicle containing alfacalcidol (Chugai Pharma Manufacturing) for 11 days. Blood samples were obtained from the tail or jugular vein immediately before and at times after injection. Urine samples at 0 to 8 hours or 8 to 24 hours, were collected in metabolic cages. sCa and uCa, serum inorganic phosphorus (sPi) and urinary phosphorus (uPi), and creatinine (uCre) were measured with an automatic analyzer (7180; Hitachi, Ltd, Chiyoda, Tokyo, Japan). Urinary deoxypyridinoline (uDpD) was measured using a Metra DPD EIA kit (DS Pharma Biomedical, Osaka, Japan), and the data were normalized to the uCre concentrations. Serum FGF23 was measured using FGF23 ELISA assay (Immunodiagnostik AG, Bensheim, Germany). Serum 1,25‐dihydroxyvitamin D [1,25(OH)2D3] levels were determined by a ELISA immunoassay (Immunodiagnostic System Ltd, Bolden, UK).
Figure 4 Effects of 11‐day treatment (12‐day study) with M‐PTH/PTHrP or alfacalcidol on serum calcium (sCa) in thyroparathyroidectomized (TPTX) rats. TPTX rats were treated for 11 days with daily s.c. injection of either vehicle or M‐PTH/PTHrP, or with daily oral alfacalcidol at the indicated doses, and sham‐surgery control rats were s.c. injected daily with vehicle. The levels of Ca in serum and urine were assessed. Blood samples were collected from the jugular vein at 8 hours (A) and at 24 hours (B) after the last treatment administration, and assessed for total sCa. Total urine was collected in metabolic cages over the time intervals of 0 to 8 hours (C), and 8 to 24 hours (D) and assessed for total urinary Ca. Data are means ± SEM; n = 6 or 5 (2.0 and 4.0 nmol/kg of M‐PTH/PTHrP); *p < 0.05 M‐PTH/PTHrP versus TPTX‐vehicle; #p < 0.05 TPTX vehicle versus sham.
Supplementary file JBM4-4-e10367-s001.pdf: Figure S1 PTH ligand‐induced cAMP‐signaling responses in GP‐2.3 cells Time course of the cAMP‐dependent luminescence response measured at 2‐minute intervals in the presence of each ligand at 10 nM (Ligand on‐phase) and B) Time course of the cAMP‐dependent luminescence response measured at 2‐minute intervals after washout of unbound ligand (Ligand wash‐out phase). GP‐2.3 cells preloaded with luciferin were treated with a concentration of PTH ligand at a concentration of 10 nM for 30 min, and cAMP‐dependent luminescence was measured at two‐minute intervals (ligand‐on phase). The cells were then removed from the plate reader, rinsed twice with media to remove unbound ligand, and then fresh media containing luciferin but lacking ligand was added and luminescence was assessed for additional 90 min (Ligand wash‐out phase). Data are means (± SEM) of four experiments, each performed in triplicate. Figure S2. In vivo calcemic actions of M‐PTH/PTHrP hybrid analogs in normal rats. The indicated M‐PTH/PTHrP hybrid analogs (sequences are shown in Figure 1) along with PTH(1–34) and PTHrP(1–36) controls, were administered at the indicated doses by i.v. injection, and at the indicated time points blood was collected from the tail vein and measured for ionized calcium (Ca^2+). Panels A‐C represent three separate experiments. Data are means ± SEM; n = 6 or 4 (80 nmol/kg of M‐PTH(1‐11)/PTHrP(12–36), M‐PTH(1‐14)/PTHrP(12–36), M‐PTH(1‐17)/PTHrP(18–36) and 1.25 nmol/kg of M‐PTH(1–30)/PTHrP(31–36)). *p < 0.05 versus Vehicle. Figure S3. Effects of 11 days treatment (12 days study) of M‐PTH/PTHrP on serum 1,25(OH) 2 Vitamin‐D3, urinary deoxypyridinoline (Dpd) and serum FGF23 in TPTX rats. Serum and urine samples obtained from the TPTX and sham control rats of the two‐week daily‐administration experiment shown in Figure 4 were analyzed by ELISA for the indicated markers. A) serum 1,25(OH)2Vitamin‐D3. B) urinary deoxypyridinoline (DpD)/Cre. C) serum FGF23. […]

Where no end group is shown, it is not given here.

Consider “AVAEIQLMHQRAKWLNSMERVEFLHHLIAEIHTAEI [M‐PTH(1‐22)/PTHrP(23‐36)]”, for which the results for the IC50 in data set [1] and in data set [2] were 7.8 ± 2.55 nM and 0.67 ± 0.02 nM, respectively. For the same compound, the Emax (as a rule, the maximal effect, on the per cent scale that the assay sets) on human PTHR1 came to 104 ± 4%.
The matching figures for “AVAEIQLMHQRAKWLNSMERVEWLRKKLQDIHTAEI [M‐PTH(1‐30)/PTHrP(31‐36)]”: 2.98 ± 0.48 nM, 0.21 ± 0.03 nM and 106 ± 4%.
For the compound “AVAEIQLMHQRAKWLNSMRRRFFLHHLIAEIHTAEI [M‐PTH(1‐18)/PTHrP(19‐36)]”, the IC50 (in general, the midpoint of a concentration-inhibition curve) in data set [1] stood at 1.66 ± 0.22 nM; in data set [2], 0.13 ± 0.02 nM. This compound also registered a maximal effect (Emax) at human PTHR1 of 107 ± 5%.
The matching figures for “AVAEIQLMHQRAKWLNSLRRRFFLHHLIAEIHTAEI [M‐PTH(1‐17)/PTHrP(18‐36)]”: 1.91 ± 0.39 nM, 0.23 ± 0.02 nM and 105 ± 5%.
For “AVAEIQLMHQRGKSIQDLRRRFFLHHLIAEIHTAEI [M‐PTH(1‐11)/PTHrP(12‐36)]”, the values for the IC50 in data set [1] and in data set [2] were 2.14 ± 0.47 nM and 0.55 ± 0.15 nM, respectively. This compound gave an Emax at human PTHR1 of 103 ± 3%.
With `C=C1/C(=C\C=C2/CCC[C@]3(C)[C@@H]([C@H](C)CCCC(C)C)CC[C@@H]23)C[C@@H](O)C[C@@H]1O` [alfacalcidol, 1α‐hydroxycholecalciferol], the “Serum levels of FGF23” value in data set [3] (M‐PTH/PTHrP at 4.0 and 8.0 nmol/kg s.c., alfacalcidol at 0.2 μg/kg oral, daily, ELISA) is reported as “significantly increased”. Moreover, in data set [3] (daily oral 0.2 μg/kg), the sCa levels result is given as “comparable to those of the sham group”. Moreover, the uCa excretion entry in data set [3] (daily oral 0.2 μg/kg, 0‐ to 8‐ and 8‐ to 24‐hour intervals) is recorded as “high uCa excretion levels”. Also, in data set [3] (daily oral, especially at the 0.2 μg/kg dose), the sPi levels entry is recorded as “normalized sPi levels”.
Regarding “AVAEIQLMHQRAKWLNSMERVEWLRKLIAEIHTAEI [M‐PTH(1‐26)/PTHrP(27‐36)]”, the IC50 came out at 1.73 ± 0.75 nM in data set [1] and 0.13 ± 0.04 nM in data set [2]. In addition, the maximal effect (Emax) on human PTHR1 amounted to 106 ± 5%.

These data come from PMC7340446, “Optimization of PTH/PTHrP Hybrid Peptides to Derive a Long‐Acting PTH Analog (LA‐PTH)” (JBMR Plus, 2020).
